# From patent publication US9637470B2, “Treatment for substance use disorders and stress disorders” (Baylor College of Medicine, priority 2013, dated 2017)
# Columns and labels:
# [1] = target: T1, human serotonin transporter (Homo sapiens, UniProt P31645); conditions: at 100 nM; cited from earlier work
# T1 construct: expressed in transfected cells; host or cells: HEK-293
# [2] = target: T2, human recombinant dopamine transporter (Homo sapiens, UniProt Q01959); conditions: at 100 nM; cited from earlier work
# T2 construct: expressed in transfected cells; host or cells: CHO-K1
# T2 sequence (Q01959 whole entry): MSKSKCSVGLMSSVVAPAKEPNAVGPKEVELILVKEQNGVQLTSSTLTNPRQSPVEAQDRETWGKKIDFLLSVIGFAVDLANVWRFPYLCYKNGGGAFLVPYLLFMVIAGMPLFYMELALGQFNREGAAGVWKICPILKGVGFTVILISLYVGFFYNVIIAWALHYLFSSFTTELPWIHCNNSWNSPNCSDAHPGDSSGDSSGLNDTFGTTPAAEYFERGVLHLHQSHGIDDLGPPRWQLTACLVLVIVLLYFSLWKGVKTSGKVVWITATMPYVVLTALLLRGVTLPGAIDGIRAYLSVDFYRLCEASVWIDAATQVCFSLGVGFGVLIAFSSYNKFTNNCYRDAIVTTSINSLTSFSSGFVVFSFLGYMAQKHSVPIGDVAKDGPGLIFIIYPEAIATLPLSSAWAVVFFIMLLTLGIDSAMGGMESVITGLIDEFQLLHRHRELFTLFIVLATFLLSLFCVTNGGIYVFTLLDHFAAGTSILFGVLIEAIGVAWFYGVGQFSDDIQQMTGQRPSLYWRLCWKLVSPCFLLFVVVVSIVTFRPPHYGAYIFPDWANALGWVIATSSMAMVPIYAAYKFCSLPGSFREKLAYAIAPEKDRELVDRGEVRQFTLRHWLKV
# [3] = target: T1, human serotonin transporter; experiment: Serotonin transporter reuptake inhibition assay (prior art); type: cell-based; conditions: at 100 nM; across serotonin, norepinephrine, and dopamine transporters
# Protocol: Serotonin transporter reuptake inhibition was assayed using the method described by Gu H. et al., J Biol Chem., 1994, 269, p […], the entire contents of which are incorporated herein by reference. Recombinant HEK-293 cells with human serotonin transporter were plated. Test compounds were pre-incubated with cells (2×10^5/ml) in modified Tris-HEPES buffer at pH 7.1 for 20 min at 25° C. and were incubated for an additional 10 min after addition of 65 nM of [3H]Serotonin. Bound cells were filtered and counted to determine [3H]Serotonin uptake. Reduction of [3H]Serotonin uptake by 50 percent or more (≧50%) relative to 10 μM fluoxetine indicated significant inhibitory activity.
# [4] = target: T3, human recombinant norepinephrine transporter (Homo sapiens, UniProt P23975); conditions: at 100 nM; cited from earlier work
# T3 construct: expressed in transfected cells; host or cells: MDCK
# T3 sequence (P23975 whole entry): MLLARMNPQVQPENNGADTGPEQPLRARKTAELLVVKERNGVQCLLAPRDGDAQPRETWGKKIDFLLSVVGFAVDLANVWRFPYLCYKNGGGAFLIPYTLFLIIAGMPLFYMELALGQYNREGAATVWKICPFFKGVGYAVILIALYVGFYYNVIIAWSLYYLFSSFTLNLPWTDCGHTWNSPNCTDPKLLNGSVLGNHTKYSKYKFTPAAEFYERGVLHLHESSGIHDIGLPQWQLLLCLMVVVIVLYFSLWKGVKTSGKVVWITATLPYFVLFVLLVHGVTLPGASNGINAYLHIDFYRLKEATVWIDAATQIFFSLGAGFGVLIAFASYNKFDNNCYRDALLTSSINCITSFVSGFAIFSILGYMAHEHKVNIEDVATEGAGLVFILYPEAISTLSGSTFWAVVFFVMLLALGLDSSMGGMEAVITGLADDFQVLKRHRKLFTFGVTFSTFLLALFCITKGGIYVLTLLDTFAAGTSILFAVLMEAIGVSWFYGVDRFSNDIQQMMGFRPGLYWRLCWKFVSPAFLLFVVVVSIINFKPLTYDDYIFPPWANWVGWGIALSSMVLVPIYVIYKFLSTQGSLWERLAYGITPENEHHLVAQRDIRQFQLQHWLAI
# humans = conditions: cited from earlier work
# T1 sequence (P31645 whole entry): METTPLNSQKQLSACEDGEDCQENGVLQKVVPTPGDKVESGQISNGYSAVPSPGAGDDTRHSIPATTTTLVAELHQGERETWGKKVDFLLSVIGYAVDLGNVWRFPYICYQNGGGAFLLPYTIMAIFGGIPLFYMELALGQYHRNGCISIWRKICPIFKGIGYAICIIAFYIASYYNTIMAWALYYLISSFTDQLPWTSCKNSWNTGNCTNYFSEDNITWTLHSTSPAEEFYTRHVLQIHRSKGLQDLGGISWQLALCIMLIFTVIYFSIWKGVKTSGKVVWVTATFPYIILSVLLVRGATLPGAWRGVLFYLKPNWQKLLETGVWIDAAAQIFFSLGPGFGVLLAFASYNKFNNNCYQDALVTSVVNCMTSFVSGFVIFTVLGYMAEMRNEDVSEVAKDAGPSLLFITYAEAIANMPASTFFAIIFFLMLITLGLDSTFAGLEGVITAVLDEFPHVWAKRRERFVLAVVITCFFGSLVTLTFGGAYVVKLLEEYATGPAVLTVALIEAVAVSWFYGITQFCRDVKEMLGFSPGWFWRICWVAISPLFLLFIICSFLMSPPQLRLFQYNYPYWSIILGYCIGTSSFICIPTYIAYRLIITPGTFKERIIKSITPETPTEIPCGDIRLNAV
Compound,"reuptake inhibition percentage, serotonin transporter [1] [%]","reuptake inhibition percentage, dopamine transporter [2] [%]","subtractive difference of reuptake inhibition percentages, at most [3] [%]","reuptake inhibition percentage, norepinephrine transporter [4] [%]",positive subjective effects in humans (comparators) (humans)
"c1ccc2cc([C@H]([C@H]3CCCNC3)n3nccn3)ccc2c1 [Example Compound 14, (3S)-3-[(S)-naphthalen-2-yl(2H-1,2,3-triazol-2-yl)methyl]piperidine]",76,52,24,70,
Clc1ccc([C@]23CNCC2C3)cc1Cl (stereo partly drawn) [amitifadine],,,,,does not produce positive subjective effects
CCOC[C@@H]1[C@@H](c2ccc(Cl)c(Cl)c2)C[C@@H]2CC[C@H]1N2C [tesofensine],,,,,does not produce positive subjective effects
